The Cmax is the peak of the concentration-time curve.

These results are taken from ChEMBL document CHEMBL4665641, “Lead optimization and efficacy evaluation of quinazoline-based BET family inhibitors for potential treatment of cancer and inflammatory diseases” (Bioorg Med Chem Lett, 2019).

In series [1] the test system is Mus musculus. Kind of series: Antiinflammatory activity in collagen/complete freund's adjuvant-induced arthritis DBA/1 mouse model assessed as MCP-1 level in rear right paw at 50 mg/kg, po administered via gavage starting from day 21 to day 41 post collagen/CFA challenge and measured on day 42 measured per mg protein (reference value: 126.24 pg). In kind it is functional. The following applies: time 21 day.

Series [2] is described as follows: Volume of distribution at steady state in CD-1 mouse at 2 mg/kg, iv. Format: ADME, organism-based. To be noted: in vivo, read-out: Vdss.
Series [3] in a line: Cmax in CD-1 mouse at 10 mg/kg, po. Format: ADME, organism-based. Details: route oral, dose 10 mg/kg. The following applies: CD-1, mouse, in vivo, read-out: Cmax.
For series [4], the system named is Mus musculus. Briefly: Antiinflammatory activity in collagen/complete freund's adjuvant-induced arthritis DBA/1 mouse model assessed as IL-2 level in rear right paw at 50 mg/kg, po administered via gavage starting from day 21 to day 41 post collagen/CFA challenge and measured on day 42 measured per mg protein (reference value: 0.2 pg). In kind it is functional. To be noted: time 21 day.

For series [5], the system named is Mus musculus. Kind of series: Antiarthritic activity in collagen/complete freund's adjuvant-induced arthritis DBA/1 mouse model assessed as paw thickness at 50 mg/kg, po administered via gavage starting from day 21 to day 41 post collagen/CFA challenge and measured on day 21 by caliper analysis (reference value: 2.48 millimeter). Format: functional. To be noted: time 21 day.

Consider `Cc1noc(C)c1-c1ccc2nc(-c3cnn(CC(C)(C)O)c3)nc(N3CCOC[C@@H]3c3ccccc3)c2c1`, for which the Activity in series [1] is 8.48 pg; in series [4], 0.3 pg; in series [5] it was 1.83 mm. For the same molecule, the Vd in series [2] worked out at 1.04 L/kg. Also, the Cmax in series [3] was determined as 2160 ng/mL.
